PubChem BioAssay AID624434 (The Scripps Research Institute Molecular Screening Center, 2012)
Active and inactive are the calls of the source.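 Rule for the calls: active = inhibition of 30% or more at 50 µM; inactive = inhibition under 30% at 50 µM.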

Molecular target: Serine/threonine-protein phosphatase 5 (Homo sapiens) (UniProt P53041)
Assay: single-dose PP5c inhibition check – biochemical, fluorescence, round 5, powder samples, confirmation (AID 624434)
Conditions: purified PP5c, OMFP dephosphorylation, at 50 µM, active compounds read high

Sequence of Serine/threonine-protein phosphatase 5 (Homo sapiens) (P53041 whole entry, looked up): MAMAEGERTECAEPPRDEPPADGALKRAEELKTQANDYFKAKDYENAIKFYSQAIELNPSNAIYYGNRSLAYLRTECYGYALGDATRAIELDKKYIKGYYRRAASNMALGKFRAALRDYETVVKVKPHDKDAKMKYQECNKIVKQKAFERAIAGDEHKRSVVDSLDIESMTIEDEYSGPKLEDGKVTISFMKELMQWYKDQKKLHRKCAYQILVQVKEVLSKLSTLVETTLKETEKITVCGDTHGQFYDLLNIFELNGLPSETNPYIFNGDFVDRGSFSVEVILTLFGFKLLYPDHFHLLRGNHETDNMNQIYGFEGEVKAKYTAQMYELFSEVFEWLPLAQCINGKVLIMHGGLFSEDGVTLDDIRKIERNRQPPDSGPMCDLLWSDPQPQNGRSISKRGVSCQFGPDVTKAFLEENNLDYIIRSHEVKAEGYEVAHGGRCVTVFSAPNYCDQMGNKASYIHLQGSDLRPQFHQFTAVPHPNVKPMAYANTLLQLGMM

Row | inhibition | SMILES
1 | 46.8% | O=C(O)c1n[nH]nc1-c1ccccn1
2 | 85.6% | CCOc1ccccc1-c1n[nH]nc1C(=O)O
3 | 3.79% (inactive) | O=C(O)c1cnn(-c2ccccc2)n1
4 | 2.79% (inactive) | N#Cc1n[nH]nc1-c1ccccc1
5 | 70% | COc1ccc(-c2n[nH]nc2C(=O)O)cc1
6 | 1.47% (inactive) | O=Cc1n[nH]nc1-c1ccccc1
7 | 5.21% (inactive) | NC(=O)c1n[nH]nc1-c1ccccc1
8 | 81.1% | O=C(O)c1n[nH]nc1-c1ccccc1F
9 | 81.9% | O=C(O)c1n[nH]nc1-c1ccccc1O
10 | 4.32% (inactive) | O=C(O)c1n[nH]nc1-c1cccnc1
11 | 52.6% | O=C(O)c1n[nH]nc1-c1ccccc1-c1ccccc1
12 | 10.6% (inactive) | O=C(O)c1n[nH]nc1Br
13 | 84.9% | CC(C)Oc1ccccc1-c1n[nH]nc1C(=O)O
14 | 69.3% | Cc1ccccc1-c1n[nH]nc1C(=O)O
15 | -1.73% (inactive) | CNC(=O)c1n[nH]nc1-c1ccccc1
16 | 0.413% (inactive) | CN(C)C(=O)c1n[nH]nc1-c1ccccc1
17 | 83.4% | COc1ccccc1-c1n[nH]nc1C(=O)O
18 | 77.6% | COc1cccc(-c2n[nH]nc2C(=O)O)c1
19 | 66.5% | O=C(O)c1n[nH]nc1-c1ccc(F)cc1
20 | 62.5% | CCc1ccccc1-c1n[nH]nc1C(=O)O
21 | 47.4% | CC(C)c1ccccc1-c1n[nH]nc1C(=O)O
22 | 1.15% (inactive) | c1ccc(-c2n[nH]nc2-c2nn[nH]n2)cc1
23 | 12.4% (inactive) | O=C(O)c1n[nH]nc1C(=O)O
24 | 70.5% | O=C(O)c1n[nH]nc1-c1cccc(F)c1
25 | 13.8% (inactive) | O=C(O)c1[nH]ccc1-c1ccccc1
